In ChEMBL document CHEMBL5532657, “Serendipitous discovery of Class I HDAC inhibitors from rational design of molecular glue degraders targeting HDAC” (Eur J Med Chem, 2024):
The source made the active and inactive calls. The rule behind the calls is not given here.

Columns and labels:
Format in all cases: functional, cell-based
RS4-11 [1] = experiment: Induction of apoptosis in human RS4-11 cells assessed as upregulation of p21 at 1 to 10 uM; details: dose 1-10 µM
RPMI-8226 = experiment: Antiproliferative activity against human RPMI-8226 cells assessed as cell growth inhibition incubated for 48 hrs by CCK-8 assay; details: RPMI-8226, 48 h
RS4-11 [2] = experiment: Induction of apoptosis in human RS4-11 cells assessed as cleavage of caspase-3 at 1 to 10 uM; details: dose 1-10 µM

IC50 (RPMI-8226) | SMILES | Activity (RS4-11 [1]) | Activity (RS4-11 [2])
3.72 µM | Nc1cc(F)ccc1NC(=O)c1ccc(CNc2cccc3c2C(=O)N(C2CCC(=O)NC2=O)C3=O)cc1 (stereo unspecified) | Active | Active
5.75 µM | Nc1ccccc1NC(=O)c1ccc(CNc2cccc3c2C(=O)N(C2CCC(=O)NC2=O)C3=O)cc1 (stereo unspecified) | Active | Active
